Activity data for 19 compounds are collected here from ChEMBL document CHEMBL1146128, “Azolylchromans as a novel scaffold for anticonvulsant activity” (2006).

Structures are written as SMILES.

One test relates to Mus musculus. The experiment in a line: Hind limb tonic extension in PTZ-induced lethal convulsions in mice at 150 mg/kg, ip. The class given is functional, Hindlimb. To be noted: route intraperitoneal.
Turning to `CCCC(CCC)C(=O)[O-].[Na+]` [VALPROATE SODIUM], the Activity was found to be 0%.

A further test deals with Mus musculus. Description: Hind limb tonic extension in PTZ-induced lethal convulsions in mice at 5 mg/kg, ip. The class given is functional, Hindlimb. As to conditions: route intraperitoneal.
`O=C1c2ccccc2OCC1n1cncn1` (configuration not stated) gave an Activity of 17%.

On to `C[C@H]1Oc2ccccc2C(=O)[C@@H]1n1cnnc1` (relative stereo), for which the Activity was determined as 100%.

Compound `O=C1c2ccc(Cl)cc2OCC1n1cncn1` (configuration not stated) returned an Activity of 100%.

Take `O=C1c2ccccc2OCC1n1ccnc1` (configuration not stated): the Activity turned out to be 83%.

Regarding `C[C@H]1Oc2cc(Cl)ccc2C(=O)[C@@H]1n1cnnc1` (relative stereo), the Activity is listed as 83%.

Turning to `O/N=C1/c2ccccc2OCC1n1cncn1` (configuration not stated), the Activity worked out at 100%.

Consider `O/N=C1/c2ccccc2OCC1n1ccnc1` (configuration not stated), for which the Activity is on record as 83%.

Compound `O=C1c2ccc(Cl)cc2OCC1n1cnnc1` (configuration not stated) yielded an Activity of 100%.

Compound `C[C@@H]1Oc2cc(Cl)ccc2C(=O)[C@H]1n1ccnc1` (relative stereo) yielded an Activity of 67%.

Compound `O/N=C1/c2ccc(Cl)cc2OCC1n1ccnc1` (configuration not stated) displayed an Activity of 100%.

In the case of `O/N=C1/c2ccc(Cl)cc2OCC1n1cnnc1` (configuration not stated), the Activity was found to be 100%.

In turn, `O=C1c2ccccc2OCC1n1cnnc1` (configuration not stated) registered an Activity of 100%.

Compound `O/N=C1\c2ccccc2OCC1n1ccnc1` (configuration not stated) came in with an Activity of 100%.

Compound `O=C1c2ccc(Cl)cc2OCC1n1ccnc1` (configuration not stated) gave an Activity of 0%.

Regarding `O=c1c(-n2cnnc2)coc2ccccc12`, the Activity is on record as 100%.

As to `O/N=C1\c2ccccc2OCC1[n+]1cnc[nH]1` (configuration not stated), the Activity stood at 100%.

`Cc1oc2ccccc2c(=O)c1-n1cnnc1` came in with an Activity of 100%.

In turn, `C[C@@H]1Oc2ccccc2C(=O)[C@H]1n1ccnc1` (relative stereo) displayed an Activity of 100%.

The subject of the next test is Mus musculus. The experiment in a line: Mortality in PTZ-induced lethal convulsions in mice at 150 mg/kg, ip. The test is classed as functional. As to conditions: route intraperitoneal.
The compound `CCCC(CCC)C(=O)[O-].[Na+]` [VALPROATE SODIUM] displayed an Activity of 0%.

The next test relates to Mus musculus. Description: Seizure latency in PTZ-induced lethal convulsions in mice at 150 mg/kg, ip. The test is classed as functional. To be noted: route intraperitoneal.
With `CCCC(CCC)C(=O)[O-].[Na+]` [VALPROATE SODIUM], the Activity amounted to 15.65 min.

The subject of another test is Mus musculus. Description: Seizure latency in PTZ-induced lethal convulsions in mice at 5 mg/kg, ip. The test is classed as functional. As to conditions: route intraperitoneal.
Compound `O=C1c2ccccc2OCC1n1cncn1` (configuration not stated) returned an Activity of 22 min.

Compound `C[C@H]1Oc2ccccc2C(=O)[C@@H]1n1cnnc1` (relative stereo) showed an Activity of 7.17 min.

The compound `O=C1c2ccc(Cl)cc2OCC1n1cncn1` (configuration not stated) registered an Activity of 2.5 min.

For `O=C1c2ccccc2OCC1n1ccnc1` (configuration not stated), the Activity was found to be 2 min.

`C[C@H]1Oc2cc(Cl)ccc2C(=O)[C@@H]1n1cnnc1` (relative stereo) displayed an Activity of 10 min.

With `O/N=C1/c2ccccc2OCC1n1cncn1` (configuration not stated), the Activity is reported as 4 min.

On to `O/N=C1/c2ccccc2OCC1n1ccnc1` (configuration not stated), for which the Activity amounted to 7.8 min.

In turn, `O=C1c2ccc(Cl)cc2OCC1n1cnnc1` (configuration not stated) registered an Activity of 4.67 min.

For the compound `C[C@@H]1Oc2cc(Cl)ccc2C(=O)[C@H]1n1ccnc1` (relative stereo), the Activity is listed as 18.6 min.

`O/N=C1/c2ccc(Cl)cc2OCC1n1ccnc1` (configuration not stated) came in with an Activity of 5.83 min.

For `O/N=C1/c2ccc(Cl)cc2OCC1n1cnnc1` (configuration not stated), the Activity came to 2.5 min.

`O=C1c2ccccc2OCC1n1cnnc1` (configuration not stated) returned an Activity of 2.83 min.

Regarding `O/N=C1\c2ccccc2OCC1n1ccnc1` (configuration not stated), the Activity is reported as 5.5 min.

In turn, `O=C1c2ccc(Cl)cc2OCC1n1ccnc1` (configuration not stated) showed an Activity of 23.5 min.

`O=c1c(-n2cnnc2)coc2ccccc12` displayed an Activity of 10 min.

For `O/N=C1\c2ccccc2OCC1[n+]1cnc[nH]1` (configuration not stated), the Activity is reported as 7.17 min.

Consider `Cc1oc2ccccc2c(=O)c1-n1cnnc1`, for which the Activity stood at 5 min.

`C[C@@H]1Oc2ccccc2C(=O)[C@H]1n1ccnc1` (relative stereo) gave an Activity of 17 min.

The subject of another test is Mus musculus. Description: Mortality in PTZ-induced lethal convulsions in mice at 5 mg/kg, ip. The test is classed as functional. As to conditions: route intraperitoneal.
The compound `O=C1c2ccccc2OCC1n1cncn1` (configuration not stated) displayed an Activity of 17%.

`C[C@H]1Oc2ccccc2C(=O)[C@@H]1n1cnnc1` (relative stereo) showed an Activity of 100%.

As to `O=C1c2ccc(Cl)cc2OCC1n1cncn1` (configuration not stated), the Activity was 100%.

The compound `O=C1c2ccccc2OCC1n1ccnc1` (configuration not stated) came in with an Activity of 83%.

`C[C@H]1Oc2cc(Cl)ccc2C(=O)[C@@H]1n1cnnc1` (relative stereo) showed an Activity of 83%.

With `O/N=C1/c2ccccc2OCC1n1cncn1` (configuration not stated), the Activity was 100%.

The compound `O/N=C1/c2ccccc2OCC1n1ccnc1` (configuration not stated) registered an Activity of 0%.

As for `O=C1c2ccc(Cl)cc2OCC1n1cnnc1` (configuration not stated), the Activity amounted to 83%.

Take `C[C@@H]1Oc2cc(Cl)ccc2C(=O)[C@H]1n1ccnc1` (relative stereo): the Activity stood at 67%.

Turning to `O/N=C1/c2ccc(Cl)cc2OCC1n1ccnc1` (configuration not stated), the Activity was 100%.

In the case of `O/N=C1/c2ccc(Cl)cc2OCC1n1cnnc1` (configuration not stated), the Activity worked out at 100%.

`O=C1c2ccccc2OCC1n1cnnc1` (configuration not stated) had an Activity of 100%.

`O/N=C1\c2ccccc2OCC1n1ccnc1` (configuration not stated) registered an Activity of 100%.

Consider `O=C1c2ccc(Cl)cc2OCC1n1ccnc1` (configuration not stated), for which the Activity was determined as 0%.

In turn, `O=c1c(-n2cnnc2)coc2ccccc12` came in with an Activity of 100%.

For `O/N=C1\c2ccccc2OCC1[n+]1cnc[nH]1` (configuration not stated), the Activity is on record as 100%.

Compound `Cc1oc2ccccc2c(=O)c1-n1cnnc1` yielded an Activity of 100%.

In turn, `C[C@@H]1Oc2ccccc2C(=O)[C@H]1n1ccnc1` (relative stereo) yielded an Activity of 67%.
